Reference: patent publication US11795204B2 (Zealand Pharma A/S, priority 2012, dated 2023)
Square brackets hold non-standard residues; d marks the D form. Peptide text beside a SMILES is read from it. Aib = CC(C)(N)C(=O)O

What was measured:
[1] = Solubility assessment (turbidity absorbance at 325 nm); settings: pH 7.5
Procedure, shortened: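 Peptide stock 2 mg/ml (A280-quantified) in water at pH 2.5, diluted 1:1 into 100 mM acetate pH 4.0 or 100 mM phosphate pH 7.5. Absorbance at 280 and 325 nm read at ambient temperature, single samples (n=1).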

[2] = Assessment of physical stability (Thioflavin T fibril formation lag-time); assay type: physicochemical; settings: 1 mg/ml, 50 mM phosphate pH 7.5, 40° C., 96 hours
Method: A solution containing 1 mg/ml of peptide, 40 μM ThT and 50 mM phosphate buffer, pH 7.5, was loaded in a 96-well black fluorescence plate (clear bottom) in triplicate. Data were collected at fixed intervals of 10 min, each preceded by 300 s of automixing (agitation), over a period of 96 hours at 40° C. The entire experiment was repeated, but without agitation. Physical stability, expressed as lag-time of fibril formation (in hours), was defined as the intersection between two linear regressions representing the initial stable phase and the growth phase.

[3] = Chemical stability assessment (RP-HPLC normalized purity); assay type: physicochemical; settings: for Normalized purity pH 4.0 after 14 days: 1 mg/ml in 50 mM acetate buffer pH 4.0, 40° C.; for Normalized purity pH 7.5 after 14 days: 1 mg/ml in 50 mM phosphate buffer pH 7.5, 40° C.
Method: Samples were placed in glass vials and incubated at 40° C. The samples were analysed by reverse-phase HPLC on a C18 column with gradient elution using an acetonitrile/trifluoroacetic acid/water eluent system. The area-percentage (area-%) of the main peak after incubation time T=t (relative to time T=0) was detected by UV spectrometry at 220 nm. The purity was first determined as follows: Purity(area-%)=(area of main peak/total area of all peaks)×100. […] Normalized purity values in Table 2 were determined after 14 days of incubation.

[4] = molecular target: T1, human Glucagon-R (Homo sapiens, UniProt P47871); assay: Glucagon receptor assay (cAMP induction, AlphaScreen); assay type: cell-based; settings: HEK293 cells expressing the human Glucagon-R, 15 min at 37° C., read-out: GCG-R EC50 in vitro
T1 construct: expressed in transfected cells
Procedure, shortened: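 Stable G418-selected clonal cells expressing the receptor were washed, then exposed to rising test peptide concentrations in IBMX-containing assay buffer for 15 min at 37° C. After lysis (≥10 min, room temperature), lysate was incubated 1 h with AlphaScreen donor/acceptor beads and cAMP content read.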

T1 sequence (P47871 26-477): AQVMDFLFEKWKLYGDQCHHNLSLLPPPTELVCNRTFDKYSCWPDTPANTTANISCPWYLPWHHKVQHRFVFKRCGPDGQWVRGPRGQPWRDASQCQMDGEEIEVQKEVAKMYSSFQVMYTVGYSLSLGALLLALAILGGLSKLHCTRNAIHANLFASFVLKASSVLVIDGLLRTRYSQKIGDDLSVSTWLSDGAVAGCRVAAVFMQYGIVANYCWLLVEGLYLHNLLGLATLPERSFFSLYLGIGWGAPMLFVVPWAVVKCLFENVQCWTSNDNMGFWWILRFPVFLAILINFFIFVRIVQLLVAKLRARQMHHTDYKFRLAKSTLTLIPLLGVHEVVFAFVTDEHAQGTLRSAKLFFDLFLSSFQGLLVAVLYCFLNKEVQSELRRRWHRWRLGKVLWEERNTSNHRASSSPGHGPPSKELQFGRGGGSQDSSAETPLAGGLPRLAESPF

Row | Compound | solubility ([1]; phosphate buffer) [µg/mL] | Physical Stability at pH 7.5 (agitated) ([2]; with agitation) | Physical Stability at pH 7.5 (non-agitated) ([2]; without agitation) | Normalized purity pH 4.0 after 14 days [3] [%] | Normalized purity pH 7.5 after 14 days [3] [%] | EC50 [4] [nM] | solubility [1] [µg/mL]
1 | CC(C)C[C@H](NC(=O)[C@H](Cc1c[nH]c2ccccc12)NC(=O)[C@H](CCCCN)NC(=O)[C@@H](NC(=O)[C@H](Cc1ccccc1)NC(=O)[C@H](CCC(=O)O)NC(=O)[C@H](CCC(=O)O)NC(=O)[C@H](C)NC(=O)[C@H](CCCNC(=N)N)NC(=O)[C@H](C)NC(=O)C(C)(C)NC(=O)[C@H](CC(=O)O)NC(=O)[C@H](CC(C)C)NC(=O)[C@H](Cc1ccc(O)cc1)NC(=O)[C@H](CCCCN)NC(=O)[C@H](CO)NC(=O)[C@H](Cc1ccc(O)cc1)NC(=O)[C@H](CC(=O)O)NC(=O)[C@H](CO)NC(=O)[C@@H](NC(=O)[C@H](Cc1ccccc1)NC(=O)[C@@H](NC(=O)CNC(=O)[C@H](CCC(N)=O)NC(=O)[C@H](CO)NC(=O)[C@@H](N)Cc1c[nH]cn1)[C@@H](C)O)[C@@H](C)O)C(C)C)C(=O)N[C@@H](CCC(=O)O)C(=O)N[C@@H](CO)C(=O)N[C@H](C(=O)O)[C@@H](C)O [Compound 21] | ≥ 1000 | FND | FND | 89.8 | 93.5 |  | 
2 | CC(C)C[C@H](NC(=O)[C@H](Cc1c[nH]c2ccccc12)NC(=O)[C@H](CCCCN)NC(=O)[C@@H](NC(=O)[C@H](Cc1ccccc1)NC(=O)[C@H](CO)NC(=O)[C@H](CCC(=O)O)NC(=O)[C@H](C)NC(=O)[C@H](CCCNC(=N)N)NC(=O)[C@H](C)NC(=O)C(C)(C)NC(=O)[C@H](CC(=O)O)NC(=O)[C@H](CC(C)C)NC(=O)[C@H](Cc1ccc(O)cc1)NC(=O)[C@H](CCCCN)NC(=O)[C@H](CO)NC(=O)[C@H](Cc1ccc(O)cc1)NC(=O)[C@H](CC(=O)O)NC(=O)[C@H](CO)NC(=O)[C@@H](NC(=O)[C@H](Cc1ccccc1)NC(=O)[C@@H](NC(=O)CNC(=O)[C@H](CCC(N)=O)NC(=O)[C@H](CO)NC(=O)[C@@H](N)Cc1c[nH]cn1)[C@@H](C)O)[C@@H](C)O)C(C)C)C(=O)N[C@@H](CCC(=O)O)C(=O)N[C@@H](CO)C(=O)N[C@H](C(N)=O)[C@@H](C)O [Compound 31] (H-HSQGTFTSDYSKYLD[Aib]ARAESFVKWLEST-NH2) |  |  |  | 93.1 | 91.7 | 0.0072 | ≥ 1000
3 | CC(C)C[C@H](NC(=O)[C@H](Cc1c[nH]c2ccccc12)NC(=O)[C@H](CCCCN)NC(=O)[C@@H](NC(=O)[C@H](Cc1ccccc1)NC(=O)[C@H](CO)NC(=O)[C@H](CCC(=O)O)NC(=O)[C@H](C)NC(=O)[C@H](CCCNC(=N)N)NC(=O)[C@H](C)NC(=O)C(C)(C)NC(=O)[C@H](CC(=O)O)NC(=O)[C@H](CC(C)C)NC(=O)[C@H](Cc1ccc(O)cc1)NC(=O)[C@H](CCCCN)NC(=O)[C@H](CO)NC(=O)[C@H](Cc1ccc(O)cc1)NC(=O)[C@H](CC(=O)O)NC(=O)[C@H](CO)NC(=O)[C@@H](NC(=O)[C@H](Cc1ccccc1)NC(=O)[C@@H](NC(=O)CNC(=O)[C@H](CCC(N)=O)NC(=O)[C@H](CO)NC(=O)[C@@H](N)Cc1c[nH]cn1)[C@@H](C)O)[C@@H](C)O)C(C)C)C(=O)N[C@@H](CCC(=O)O)C(=O)N[C@@H](CO)C(=O)N[C@@H](C)C(=O)O [Compound 30] (H-HSQGTFTSDYSKYLD[Aib]ARAESFVKWLESA-OH) |  |  |  | 88.6 | 91.4 | 0.016 | ≥ 1000
4 | CNC(=O)CC[C@H](NC(=O)[C@H](CO)NC(=O)[C@@H](N)Cc1c[nH]cn1)C(=O)NCC(=O)N[C@H](C(=O)N[C@@H](Cc1ccccc1)C(=O)N[C@H](C(=O)N[C@@H](CO)C(=O)N[C@@H](CC(=O)O)C(=O)N[C@@H](Cc1ccc(O)cc1)C(=O)N[C@@H](CO)C(=O)N[C@@H](CCCCN)C(=O)N[C@@H](Cc1ccc(O)cc1)C(=O)N[C@@H](CC(C)C)C(=O)N[C@@H](CC(=O)O)C(=O)NC(C)(C)C(=O)N[C@@H](C)C(=O)N[C@@H](CCCNC(=N)N)C(=O)N[C@@H](C)C(=O)N[C@@H](CCC(=O)O)C(=O)N[C@@H](CO)C(=O)N[C@@H](Cc1ccccc1)C(=O)N[C@H](C(=O)N[C@@H](CCCCN)C(=O)N[C@@H](Cc1c[nH]c2ccccc12)C(=O)N[C@@H](CC(C)C)C(=O)N[C@@H](CCC(=O)O)C(=O)N[C@@H](CO)C(=O)N[C@H](C(=O)O)[C@@H](C)O)C(C)C)[C@@H](C)O)[C@@H](C)O [Compound 26] (H-HSE(NHMe)GTFTSDYSKYLD[Aib]ARAESFVKWLEST-OH) |  |  |  | 90 | 93.9 | 0.0069 | ≥ 1000
5 | CC(C)C[C@H](NC(=O)[C@H](Cc1c[nH]c2ccccc12)NC(=O)[C@H](CCCCN)NC(=O)[C@@H](NC(=O)[C@H](Cc1ccccc1)NC(=O)[C@H](CC(=O)O)NC(=O)[C@H](CCC(=O)O)NC(=O)[C@H](C)NC(=O)[C@H](CCCNC(=N)N)NC(=O)[C@H](C)NC(=O)C(C)(C)NC(=O)[C@H](CC(=O)O)NC(=O)[C@H](CC(C)C)NC(=O)[C@H](Cc1ccc(O)cc1)NC(=O)[C@H](CCCCN)NC(=O)[C@H](CO)NC(=O)[C@H](Cc1ccc(O)cc1)NC(=O)[C@H](CC(=O)O)NC(=O)[C@H](CO)NC(=O)[C@@H](NC(=O)[C@H](Cc1ccccc1)NC(=O)[C@@H](NC(=O)CNC(=O)[C@H](CCC(N)=O)NC(=O)[C@H](CO)NC(=O)[C@@H](N)Cc1c[nH]cn1)[C@@H](C)O)[C@@H](C)O)C(C)C)C(=O)N[C@@H](CCC(=O)O)C(=O)N[C@@H](CO)C(=O)N[C@H](C(=O)O)[C@@H](C)O [Compound 12] (H-HSQGTFTSDYSKYLD[Aib]ARAEDFVKWLEST-OH) |  |  |  | 86.8 | 90.8 | 0.03 | ≥ 1000
6 | H-HSQGTFTSDYSKYLDEARAEDFVKWLEST-OH [Compound 14] |  |  |  | 89.5 | 92.4 | 0.15 | ≥ 1000
7 | H-HSQGTFTSDYSKYLDLARAEDFVKWLEST-OH [Compound 17] |  |  |  | 89.9 | 88.3 | 0.029 | ≥ 1000
